The subject of assay [1] is HeLa nuclear extract HDAC. Put plainly: HeLa nuclear extract HDAC activity assay. The class given is biochemical. The following applies: HeLa nuclear extract as HDAC source.
The next assay concerns the target T1, Hsp90α (Homo sapiens, UniProt P07900).
T1 construct: purchased BPS Bioscience
As to the kind of experiment: Heat shock protein (Hsp) 90α activity assay (fluorescence polarization, FITC-labeled geldanamycin). The assay is classed as binding. The conditions noted are these: read-out: HSP90 IC50. On the technique in general: Fluorescence polarisation rises when a labelled molecule tumbles more slowly, as on binding a larger partner.

Assay [2] deals with laser-induced choroidal neovascularization (CNV). As to the kind of experiment: Laser-induced choroidal neovascularization (CNV) model, fundus fluorescein angiography. The class given is in vivo, C57BL/6 mice. The conditions noted are these: day 7, vs vehicle; G570 20 mg/kg/day i.p. days 0, 1, 3, 5; Eylea 40 μg/1 μL per eye i.v.t. day 0.

The text below walks through data of paper PMC8305912, “The HDAC/HSP90 Inhibitor G570 Attenuated Blue Light-Induced Cell Migration in RPE Cells and Neovascularization in Mice through Decreased VEGF Production” (Molecules, 2021).

As usually defined, the IC50 is the concentration needed to halve the response being measured.

Compound `COc1c(C)cnc(Cn2cnc3c(Cl)nc(N)nc32)c1C` [BIIB021] registered an IC50 in assay [1] of more than 1 µM.
`CC(C)c1cc(C(=O)N2CCc3cc(NC(=O)CCC(=O)NO)ccc32)c(O)cc1O` [Compound 1, N1-(1-(2,4-dihydroxy-5-isopropylbenzoyl)indolin-5-yl)-N4-hydroxysuccinamide]: the concentration for half-maximal inhibition (IC50) at Hsp90α was 0.0493 ± 0.0016 µM.
With `CC(C)c1cc(C(=O)N2CCc3cc(NC(=O)CCCC(=O)NO)ccc32)c(O)cc1O` [Compound 2, N1-(1-(2,4-dihydroxy-5-isopropylbenzoyl)indolin-5-yl)-N5-hydroxyglutaramide], on Hsp90α, the IC50 was 0.0559 ± 0.0032 µM.
In the case of `CC(C)c1cc(C(=O)N2CCc3cc(NC(=O)CCCCCC(=O)NO)ccc32)c(O)cc1O` [Compound 4, N1-(1-(2,4-dihydroxy-5-isopropylbenzoyl)indolin-5-yl)-N7-hydroxyheptanediamide], at Hsp90α, the 50% inhibitory concentration (IC50) was determined as 0.0402 ± 0.0052 µM.
Consider `CC(C)c1cc(C(=O)N2CCc3cc(NC(=O)CCCCCCCC(=O)NO)ccc32)c(O)cc1O` [Compound 6, N1-(1-(2,4-dihydroxy-5-isopropylbenzoyl)indolin-5-yl)-N9-hydroxynonanediamide], for which, at Hsp90α, the IC50 is 0.0521 ± 0.0029 µM.
Turning to `CC(C)c1cc(C(=O)N2CCc3cc(NC(=O)CCCCCCCCC(=O)NO)ccc32)c(O)cc1O` [Compound 7, N1-(1-(2,4-dihydroxy-5-isopropylbenzoyl)indolin-5-yl)-N10-hydroxydecanediamide], the IC50 on Hsp90α turned out to be 0.0586 ± 0.0022 µM.
On to `O=C(CCCCCCC(=O)Nc1ccccc1)NO` [SAHA, reference compound], for which the half-inhibitory concentration (IC50) at Hsp90α was more than 1 µM.
Consider aflibercept [Eylea], for which the “laser-induced leakage area of fluorescein (FFA)” value in assay [2] is “significantly decreased”.
